# Earlier results, collected in US20040115749A1, “Cardiovascular disease and thrombotic risk diagnostic tests” (priority 2001, published 2004).
# System: ELISA kit for 13(S)-HODE (anti-13(S)-HODE specific antibody)
# Conditions: commercial ELISA kit for 13(S)-HODE
smiles,measurement,value
CCCCC[C@@H](O)/C=C/C=C\CCCCCCCC(=O)O [13(R)-HODE],cross-reactivity,10%
